The values below come from PubChem BioAssay AID328 (DTP/NCI, 2004).

Where “and” joins values, the source holds several entries; their conditions need not be identical. Equal entries are not always repeated. Toxic doses and inconclusive results are not listed.

For this test, the system named is BDF1 mice, P388 leukemia ip, median survival T/C. The test is described as follows: NCI In Vivo Anticancer Drug Screen. Data for tumor model P388 Leukemia (intraperitoneal) in B6D2F1 (BDF1) mice. As to conditions: endpoint: median survival time, higher = longer survival. The essentials:
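T/C = treated-group survival ÷ vehicle-control survival; tumour transplanted into mice before dosing.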

Setting [1] is: dose: 100.0 mg/kg/injection, schedule: Q04DX003 (ip), vehicle: saline.
Where [2] appears, read: dose: 12.5 mg/kg/injection, schedule: Q01DX009 (ip), vehicle: saline with Tween-80.
Where [3] appears, read: dose: 25.0 mg/kg/injection, schedule: Q04DX003 (ip), vehicle: saline.
Where [4] appears, read: dose: 50.0 mg/kg/injection, schedule: Q04DX003 (ip), vehicle: saline.
Setting [5] is: dose: 25.0 mg/kg/injection, schedule: Q01DX009 (ip), vehicle: saline with Tween-80.
The mark [6] stands for this setting: dose: 50.0 mg/kg/injection, schedule: Q01DX009 (ip), vehicle: saline with Tween-80.
The mark [7] stands for this setting: dose: 100.0 mg/kg/injection, schedule: Q01DX009 (ip), vehicle: saline with Tween-80.
Where [8] appears, read: dose: 100.0 mg/kg/injection, schedule: Q04DX003 (ip), vehicle: saline with Tween-80.
[9] abbreviates: dose: 1.56 mg/kg/injection, schedule: Q01DX009 (ip), vehicle: saline.
The mark [10] stands for this setting: dose: 6.25 mg/kg/injection, schedule: Q01DX009 (ip), vehicle: saline.
[11] abbreviates: dose: 12.5 mg/kg/injection, schedule: Q01DX009 (ip), vehicle: saline.
The mark [12] stands for this setting: dose: 50.0 mg/kg/injection, schedule: Q04DX003 (ip), vehicle: saline with Tween-80.

As to `O=C1/C(=N/O)Cc2ccccc21`, the T/C was 101 % of control (dose: 0.1 mg/kg/injection, schedule: Q01DX009 (ip), vehicle: water); 103 % of control and 108 % of control (dose: 0.2 mg/kg/injection, schedule: Q01DX009 (ip), vehicle: water); 106 % of control (dose: 0.8 mg/kg/injection, schedule: Q01DX009 (ip), vehicle: water); 108 % of control (dose: 1.2 mg/kg/injection, schedule: Q01DX009 (ip), vehicle: water); 96 % of control (dose: 2.4 mg/kg/injection, schedule: Q01DX009 (ip), vehicle: water); 106 % of control (dose: 3.12 mg/kg/injection, schedule: Q04DX003 (ip), vehicle: water). Further, the T/C reads like this: (dose: 6.25 mg/kg/injection, schedule: Q04DX003 (ip), vehicle: water) 97 % of control; (dose: 12.5 mg/kg/injection, schedule: Q04DX003 (ip), vehicle: water) 115 % of control; (dose: 25.0 mg/kg/injection, schedule: Q04DX003 (ip), vehicle: water) 104 % of control; (dose: 50.0 mg/kg/injection, schedule: Q04DX003 (ip), vehicle: water) 106 % of control.
As to `O=C(O)CC1(c2cccc3ccccc23)OC(=O)c2ccccc21` (stereo not given), the T/C is 112 % of control (dose: 100.0 mg/kg/injection, schedule: Q01DX001 (ip), vehicle: saline with Tween-80); 88 % of control (dose: 200.0 mg/kg/injection, schedule: Q01DX001 (ip), vehicle: saline with Tween-80); 97 % of control (dose: 400.0 mg/kg/injection, schedule: Q01DX001 (ip), vehicle: saline with Tween-80).
Turning to `CCC(=O)c1cc(OC)cc(OC)c1`, the T/C under setting [1] was 115 % of control; the T/C (dose: 200.0 mg/kg/injection, schedule: Q04DX003 (ip), vehicle: saline) is 120 % of control; the T/C (dose: 400.0 mg/kg/injection, schedule: Q04DX003 (ip), vehicle: saline) is 120 % of control.
Take `CC/C(C)=N\NC(=S)SC`: the T/C is, setting by setting: (dose: 3.13 mg/kg/injection, schedule: Q01DX009 (ip), vehicle: saline with Tween-80) 98 % of control; (dose: 6.25 mg/kg/injection, schedule: Q01DX009 (ip), vehicle: saline with Tween-80) 102 % of control; under setting [2], 102 % of control.
Consider `N#[N+]N=c1c(=NN=[N-])c(=O)c2ccccc2c1=O`, for which the T/C (dose: 3.0 mg/kg/injection, schedule: Q01DX009 (ip), vehicle: saline with Tween-80) is 90 % of control; the T/C (dose: 6.0 mg/kg/injection, schedule: Q01DX009 (ip), vehicle: saline with Tween-80) is 87 % of control; the T/C (dose: 12.0 mg/kg/injection, schedule: Q01DX009 (ip), vehicle: saline with Tween-80) was 95 % of control.
Regarding `CCCCCCCCCCCCOc1ccccc1C=O`, the T/C (dose: 50.0 mg/kg/injection, schedule: Q04DX003 (ip), vehicle: Klucel (hydroxypropylcellulose) (HPC)) was 104 % of control; the T/C (dose: 100.0 mg/kg/injection, schedule: Q04DX003 (ip), vehicle: Klucel (hydroxypropylcellulose) (HPC)) was 100 % of control; the T/C (dose: 100.0 mg/kg/injection, schedule: Q04DX003 (ip), vehicle: saline sonified) is 118 % of control; the T/C (dose: 200.0 mg/kg/injection, schedule: Q04DX003 (ip), vehicle: Klucel (hydroxypropylcellulose) (HPC)) is 118 % of control; the T/C (dose: 200.0 mg/kg/injection, schedule: Q04DX003 (ip), vehicle: saline sonified) was 122 % of control; the T/C (dose: 400.0 mg/kg/injection, schedule: Q04DX003 (ip), vehicle: Klucel (hydroxypropylcellulose) (HPC)) was 109 % of control.
Consider `CC1=CC(=O)NC1O` (stereo not given), for which the T/C is 87 % of control (dose: 2.5 mg/kg/injection, schedule: Q01DX010 (ip), vehicle: saline); 91 % of control (dose: 10.0 mg/kg/injection, schedule: Q01DX010 (ip), vehicle: saline); 100 % of control (dose: 15.0 mg/kg/injection, schedule: Q01DX010 (ip), vehicle: saline).
In the case of `CS(=O)(=O)OCC(O)C(O)C(O)C(O)COS(C)(=O)=O` (stereo not given), the T/C runs as follows: (dose: 25.0 mg/kg/injection, schedule: Q01DX010 (ip), vehicle: saline) 108 % of control; (dose: 50.0 mg/kg/injection, schedule: Q01DX010 (ip), vehicle: saline) 116 % of control.
With `ClC1CC[N-]CC1.ClC1CC[N-]CC1.[Cl][Pt+2]([Cl])([Cl])[Cl]`, the T/C (dose: 12.5 mg/kg/injection, schedule: Q01DX009 (ip), vehicle: Klucel (hydroxypropylcellulose) (HPC)) was 182 % of control; the T/C (dose: 25.0 mg/kg/injection, schedule: Q01DX009 (ip), vehicle: Klucel (hydroxypropylcellulose) (HPC)) was 221 % of control; the T/C (dose: 50.0 mg/kg/injection, schedule: Q01DX009 (ip), vehicle: Klucel (hydroxypropylcellulose) (HPC)) was 115 % of control.
For the compound `NC(N)=NCCCCC(=O)Nc1ccc(S(N)(=O)=O)cc1`, the T/C is, setting by setting: (dose: 25.0 mg/kg/injection, schedule: Q01DX009 (ip), vehicle: saline) 97 % of control; (dose: 50.0 mg/kg/injection, schedule: Q01DX009 (ip), vehicle: saline) 112 % of control; (dose: 100.0 mg/kg/injection, schedule: Q01DX009 (ip), vehicle: saline) 110 % of control.
Regarding `CC(C)=CCC/C(C)=C/Cn1cnc2c(ncn2C2OC(CO)C(O)C2O)c1=O` (stereo not given), the T/C (dose: 12.5 mg/kg/injection, schedule: Q04DX003 (ip), vehicle: saline) was 110 % of control; the T/C under setting [3] was 105 % of control; the T/C under setting [4] was 114 % of control.
For `O=C1N=C(Oc2ccccc2)SC1=O`, the T/C is, setting by setting: under setting [5], 103 % of control and 104 % of control; (dose: 50.0 mg/kg/injection, schedule: Q01DX009 (ip), vehicle: saline + alcohol) 113 % of control; under setting [6], 95 % of control and 108 % of control; (dose: 100.0 mg/kg/injection, schedule: Q01DX009 (ip), vehicle: saline + alcohol) 120 % of control; under setting [7], 117 % of control and 123 % of control; (dose: 200.0 mg/kg/injection, schedule: Q01DX009 (ip), vehicle: saline + alcohol) 113 % of control. The T/C (dose: 200.0 mg/kg/injection, schedule: Q01DX009 (ip), vehicle: saline with Tween-80) is 117 % of control and 121 % of control.
Turning to `CN(C)c1ccc(C2NC(=S)NC3=C2CCCC3)cc1` (stereo not given), the T/C runs as follows: under setting [2], 108 % of control; under setting [5], 111 % of control; under setting [6], 88 % of control and 109 % of control.
On to `NNC(=O)NO`, for which the T/C under setting [3] is 95 % of control, the T/C under setting [4] is 104 % of control and the T/C under setting [1] was 100 % of control.
`COc1c(O)c(OC)c(C(=O)/C=C/c2ccccc2)c(O)c1OC`: the T/C was 107 % of control under setting [5], 114 % of control under setting [6] and 99 % of control under setting [7].
With `CC(=O)OC(c1ccccc1)C(Cl)(Cl)Cl` (stereo not given), the T/C runs as follows: under setting [8], 100 % of control; (dose: 200.0 mg/kg/injection, schedule: Q04DX003 (ip), vehicle: saline with Tween-80) 105 % of control; (dose: 400.0 mg/kg/injection, schedule: Q04DX003 (ip), vehicle: saline with Tween-80) 110 % of control.
Take `O=P(NC1CCCC1)(N1CC1)N1CC1`: the T/C reads like this: under setting [9], 116 % of control; under setting [10], 187 % of control and 220 % of control; under setting [11], 91 % of control and 104 % of control.
In the case of `O=C(OCCC(OC(=O)c1ccccc1)C(COC(=O)c1ccccc1)OC(=O)c1ccccc1)c1ccccc1` (stereo not given), the T/C runs as follows: (dose: 100.0 mg/kg/injection, schedule: Q01DX009 (ip), vehicle: Klucel (hydroxypropylcellulose) (HPC)) 87 % of control; (dose: 200.0 mg/kg/injection, schedule: Q01DX009 (ip), vehicle: Klucel (hydroxypropylcellulose) (HPC)) 95 % of control.
On to `CC(=O)c1ccccc1OCC(O)CN1CCN(c2ccccc2)CC1` (stereo not given), for which the T/C under setting [5] is 100 % of control; the T/C (dose: 25.0 mg/kg/injection, schedule: Q04DX003 (ip), vehicle: saline with Tween-80) was 113 % of control; the T/C under setting [6] is 100 % of control; the T/C under setting [12] was 104 % of control; the T/C under setting [7] was 96 % of control; the T/C under setting [8] is 109 % of control.
As for `O=C1NC2(CCCCC2)C(=O)N1CCN(CCCl)CCCl`, the T/C (dose: 0.39 mg/kg/injection, schedule: Q01DX009 (ip), vehicle: saline) was 196 % of control; the T/C (dose: 0.78 mg/kg/injection, schedule: Q01DX009 (ip), vehicle: saline) is 189 % of control; the T/C under setting [9] is 222 % of control; the T/C (dose: 3.12 mg/kg/injection, schedule: Q01DX009 (ip), vehicle: saline) was 291 % of control; the T/C under setting [10] is 291 % of control; the T/C under setting [11] is 120 % of control.
In the case of `CCCCCCCCN(c1ccc(I)cc1)S(=O)(=O)c1ccc(C)cc1`, the T/C reads like this: under setting [12], 111 % of control; under setting [8], 111 % of control.
